Assay results as given in ChEMBL document CHEMBL5634083, “Targeting polyketide synthase 13 for the treatment of tuberculosis” (Eur J Med Chem, 2023).
≈ marks a conversion by molar mass, not a printed value.

Assays:
[1] = tested on: Mycobacterium tuberculosis; test: Antimycobacterial activity against Mycobacterium tuberculosis H37Rv assessed as microbial growth inhibition measured after 3 days by alamar blue assay; assay type: functional; conditions: 72 h, time 3 day
[2] = tested on: Mycobacterium tuberculosis; test: Antimycobacterial activity against Mycobacterium tuberculosis H37Rv assessed as reduction in bacterial growth; assay type: functional
[3] = tested on: HepG2; test: Cytotoxicity against human HepG2 cells assessed as reduction in cell growth; assay type: functional, cell-based
[4] = Cytotoxicity against African green monkey Vero cells assessed as reduction in cell viability; assay type: toxicity, cell-based; conditions: African green monkey (Chlorocebus sabaeus)
[5] = tested on: Mycobacterium tuberculosis; test: Antimycobacterial activity against Mycobacterium tuberculosis H37Rv assessed as reduction in bacterial growth incubated for 7 days by resazurin based assay; assay type: functional; conditions: 168 h, time 7 day
[6] = Microsomal stability in human liver microsomes assessed as half life; assay type: ADME, Microsome
[7] = tested on: Mycobacterium tuberculosis; test: Antimycobacterial activity against Mycobacterium tuberculosis H37Rv assessed as reduction in microbial growth after 7 days by alamar blue assay; assay type: functional; conditions: 168 h, time 7 day
[8] = Metabolic stability in mouse liver microsomes assessed as intrinsic clearance; assay type: ADME, Microsome
[9] = tested on: Mycobacterium tuberculosis; test: Antimycobacterial activity against Mycobacterium tuberculosis H37Rv assessed as reduction in bacterial cell growth by resazurin reduction method; assay type: functional
[10] = tested on: Mycobacterium tuberculosis; test: Antimycobacterial activity against Mycobacterium tuberculosis H37Rv assessed as reduction in bacterial growth measured after 16 to 24 hrs by microplate alamar blue assay; assay type: functional; conditions: time 16-24 hrs
[11] = biological target: Polyketide synthase Pks13 (Mycobacterium tuberculosis (strain ATCC 25618 / H37Rv), UniProt I6X8D2); test: Inhibition of Mycobacterium tuberculosis recombinant Pks13 expressed in Escherichia coli BL21 (DE3) cells using 4-methylumbelliferyl heptanoate as substrate incubated for 3 hrs by […] based analysis
Sequence of Polyketide synthase Pks13 (I6X8D2 whole entry): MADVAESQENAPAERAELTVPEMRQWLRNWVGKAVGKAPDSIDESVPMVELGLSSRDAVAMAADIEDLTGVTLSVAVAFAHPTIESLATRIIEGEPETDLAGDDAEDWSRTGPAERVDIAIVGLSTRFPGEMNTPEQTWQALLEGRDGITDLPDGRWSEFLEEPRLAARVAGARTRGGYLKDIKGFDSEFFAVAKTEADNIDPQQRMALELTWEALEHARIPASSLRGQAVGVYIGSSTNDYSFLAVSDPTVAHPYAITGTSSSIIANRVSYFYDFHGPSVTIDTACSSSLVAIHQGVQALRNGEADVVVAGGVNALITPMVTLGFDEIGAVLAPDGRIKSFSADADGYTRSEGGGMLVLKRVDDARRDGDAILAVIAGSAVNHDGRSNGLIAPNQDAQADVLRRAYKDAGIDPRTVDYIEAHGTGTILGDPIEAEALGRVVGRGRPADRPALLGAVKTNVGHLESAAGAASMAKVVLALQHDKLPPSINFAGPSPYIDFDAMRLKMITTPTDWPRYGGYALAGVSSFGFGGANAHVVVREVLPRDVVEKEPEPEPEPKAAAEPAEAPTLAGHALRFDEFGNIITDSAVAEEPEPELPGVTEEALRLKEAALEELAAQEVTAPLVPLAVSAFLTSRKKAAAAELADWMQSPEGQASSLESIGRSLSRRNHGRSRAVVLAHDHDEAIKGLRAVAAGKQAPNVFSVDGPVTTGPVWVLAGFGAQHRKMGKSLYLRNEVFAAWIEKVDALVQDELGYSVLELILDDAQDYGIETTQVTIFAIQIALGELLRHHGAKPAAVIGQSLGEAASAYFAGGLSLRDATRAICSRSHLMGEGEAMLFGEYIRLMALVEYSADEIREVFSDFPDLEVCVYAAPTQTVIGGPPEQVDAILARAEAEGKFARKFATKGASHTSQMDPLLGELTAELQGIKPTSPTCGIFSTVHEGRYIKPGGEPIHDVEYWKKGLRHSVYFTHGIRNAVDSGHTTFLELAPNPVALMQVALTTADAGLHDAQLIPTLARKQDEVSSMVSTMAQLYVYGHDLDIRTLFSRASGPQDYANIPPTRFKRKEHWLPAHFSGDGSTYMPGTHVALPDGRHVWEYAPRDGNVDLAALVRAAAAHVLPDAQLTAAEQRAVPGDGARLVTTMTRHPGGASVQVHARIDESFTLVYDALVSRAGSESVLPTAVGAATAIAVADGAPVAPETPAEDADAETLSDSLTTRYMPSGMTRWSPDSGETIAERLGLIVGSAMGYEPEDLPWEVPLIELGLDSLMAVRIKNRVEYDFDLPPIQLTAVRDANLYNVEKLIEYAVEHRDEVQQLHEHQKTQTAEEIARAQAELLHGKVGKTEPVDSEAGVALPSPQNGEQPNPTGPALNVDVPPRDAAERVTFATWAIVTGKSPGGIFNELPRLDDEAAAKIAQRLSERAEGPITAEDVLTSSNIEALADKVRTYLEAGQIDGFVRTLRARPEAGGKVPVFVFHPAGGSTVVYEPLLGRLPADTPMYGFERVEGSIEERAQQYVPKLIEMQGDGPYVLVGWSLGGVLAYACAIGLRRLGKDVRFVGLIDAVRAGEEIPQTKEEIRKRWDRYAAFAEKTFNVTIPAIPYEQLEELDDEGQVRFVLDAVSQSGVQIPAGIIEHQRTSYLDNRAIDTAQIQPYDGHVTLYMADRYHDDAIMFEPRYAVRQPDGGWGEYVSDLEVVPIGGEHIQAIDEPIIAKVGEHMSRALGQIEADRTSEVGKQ

[12] = tested on: Mycobacterium tuberculosis; test: Antitubercular activity against Mycobacterium tuberculosis H37Rv assessed as reduction in microbial growth measured after 3 weeks by resazurin microplate reader assay; assay type: functional; conditions: 504 h
[13] = tested on: Mycobacterium tuberculosis; test: Antimycobacterial activity against Mycobacterium tuberculosis H37Rv ATCC 27294 assessed as reduction in bacterial growth after 21 days by serial dilution method; assay type: functional; conditions: H37Rv ATCC 27294, 504 h, time 21 day
[14] = tested on: Mycobacterium tuberculosis; test: Antibacterial activity against Mycobacterium tuberculosis H37Rv assessed as inhibition of cell growth; assay type: functional

Work on C=CCCCCCCC[C@H]1C(=O)O[C@@H]1CCCCCNC(=O)c1ccc(N(C)C)cc1 yielded an MIC [1] of 1.6 µM (≈ 0.686 µg/mL).
Work on COC(=O)c1c(NC(=O)c2c(F)c(F)c(F)c(F)c2F)sc2c1CCCCC2 yielded an MIC [2] of 0.5 µM (≈ 0.21 µg/mL), an IC50 [3] of 7.3 µM and an IC50 [4] of 17.5 µM. It also gave an MIC [5] of 1 µM (≈ 0.419 µg/mL).
Compound CCOC(=O)c1c(NC(=O)c2c(F)c(F)c(F)c(F)c2F)sc(C(N)=O)c1C has an MIC [2] of 0.5 µM (≈ 0.211 µg/mL) and an MIC [5] of 0.5 µM (≈ 0.211 µg/mL).
Work on CCOC(=O)c1c(-c2ccccc2)oc2ccc(O)c(CN3CCC(C)CC3)c12 yielded a half-life [6] of 18.8 min.
Work on CCOC(=O)c1c(NC(=O)c2c(F)c(F)c(F)c(F)c2F)sc2c1CCN(CC)C2 yielded an MIC [7] of 0.23 µM.
With CNC(=O)c1c(-c2ccc(O)cc2)oc2ccc(O)c(CN3CCCCC3)c12 the CLH [8] was < 0.5 mL/min/g.
Compound CNC(=O)c1c(-c2ccccc2)oc2ccc(O)c(CN3CCCCC3)c12 has an MIC [9] of 0.29 µM (≈ 0.106 µg/mL).
For O=c1cc(-c2ccccc2O)oc2ccc(O)c(CN3CCC3)c12, the MIC [10] was 0.45 µg/mL (≈ 1.39 µM) and the IC50 [11] was 0.0143 µM.
With O=C(c1ccccc1)c1cc(Cl)ccc1OCc1nc(-c2ccc(C(F)(F)F)cc2)no1 the MIC [12] was 8 µg/mL.
COc1ccccc1OCCNCC(O)COc1cccc2[nH]c3ccccc3c12 (stereo not drawn) [CARVEDILOL] showed an MIC [13] of 32 µg/mL (≈ 78.7 µM).
Cc1ccc(-c2cc(C(F)(F)F)nn2-c2ccc(S(N)(=O)=O)cc2)cc1 [CELECOXIB] gave an MIC [13] of 64 µg/mL (≈ 168 µM).
In the case of CCCCCCCCCCC[C@@H](C[C@@H]1OC(=O)[C@H]1CCCCCC)OC(=O)[C@H](CC(C)C)NC=O [ORLISTAT], the MIC [14] is reported as 15 µM (≈ 7.44 µg/mL).
For CCN(CC)CCCC(C)Nc1c2ccc(Cl)cc2nc2ccc(OC)cc12 (stereo not drawn) [QUINACRINE], the MIC [13] was 64 µg/mL (≈ 160 µM).
